From US20210299204A1 (priority 2020, published 2021) come the findings set out here.

The nature of the data set: Adverse outcome after a Depo-Provera shot for endometrial treatment. The note with it: inventor themself, one shot, 1987; attributed to the preservative in the drug.

Turning to `CC(=O)O[C@]1(C(C)=O)CC[C@H]2[C@@H]3C[C@H](C)C4=CC(=O)CC[C@]4(C)[C@H]3CC[C@@]21C` [Depo-Provera], the “adverse result of treatment” value was “retinal atrophy”.
